Source: patent US7399762B2, “Opioid receptor agonist compounds and their use in treatment of pain” (Research Triangle Institute, priority 2005, dated 2008)

Columns and labels:
Type in all cases: biochemical
human mu opioid receptor = molecular target: T1, human mu opioid receptor (Homo sapiens, UniProt P35372); assay: [35S]GTP-γ-S binding stimulation, intrinsic activity at mu receptor; details: for intrinsic activity at the mu opioid receptor (in words): compared with DAMGO
T1 construct: expressed in transfected cells; host or cells: CHO cells (membrane homogenates)
T1 sequence (P35372 whole entry): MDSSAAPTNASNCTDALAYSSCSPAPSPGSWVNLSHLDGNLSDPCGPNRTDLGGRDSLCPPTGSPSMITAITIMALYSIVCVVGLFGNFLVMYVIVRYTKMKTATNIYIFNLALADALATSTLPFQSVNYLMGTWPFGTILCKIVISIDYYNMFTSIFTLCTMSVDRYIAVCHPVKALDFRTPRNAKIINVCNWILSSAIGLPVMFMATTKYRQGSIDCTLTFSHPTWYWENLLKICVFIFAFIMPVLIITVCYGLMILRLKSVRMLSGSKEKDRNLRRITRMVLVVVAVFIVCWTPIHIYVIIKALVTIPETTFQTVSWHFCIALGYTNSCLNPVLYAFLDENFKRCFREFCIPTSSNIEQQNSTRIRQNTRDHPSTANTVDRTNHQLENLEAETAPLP
Protocol: (§1) Determination of intrinsic activity. Test compounds 2.8 and 2.11 were assayed for their ability to stimulate [35S]GTP-γ-S binding in CHO cell membrane homogenates expressing either the human mu or human delta opioid receptor. The compounds were assayed in triplicate at eight different concentrations. […] The membranes were incubated with one of eight concentrations of positive control or test compound, 0.1 nM [35S]GTP-γ-S and 10 μM GDP in a 50 mM HEPES buffer (pH 7.4) at room temperature for one hour, after which bound radioligand was separated from free via rapid vacuum filtration over GF-B filters using a Brandel Scientific (Gaithersburg, MD) 96-well harvester. Bound radioactivity was determined using a TopCount 12-detector instrument (Packard Instruments) using standard scintillation counting techniques. The data were normalized to samples containing vehicle (basal binding), and a three-parameter logistic curve fit to the data using Prism (version 3.0, GraphPad Software, Inc., San Diego, Calif.). The EC50 and upper asymptote (Emax) were calculated for each compound and the data reported as mean ±SEM.

[1] = molecular target: T2, human kappa opioid receptor (Homo sapiens, UniProt P41145); assay: Apparent affinity (Ke): shift of U69,593 dose response curve in [35S]GTP-γ-S binding
T2 construct: expressed in transfected cells; host or cells: CHO cells (membrane homogenates)
T2 sequence (P41145 whole entry): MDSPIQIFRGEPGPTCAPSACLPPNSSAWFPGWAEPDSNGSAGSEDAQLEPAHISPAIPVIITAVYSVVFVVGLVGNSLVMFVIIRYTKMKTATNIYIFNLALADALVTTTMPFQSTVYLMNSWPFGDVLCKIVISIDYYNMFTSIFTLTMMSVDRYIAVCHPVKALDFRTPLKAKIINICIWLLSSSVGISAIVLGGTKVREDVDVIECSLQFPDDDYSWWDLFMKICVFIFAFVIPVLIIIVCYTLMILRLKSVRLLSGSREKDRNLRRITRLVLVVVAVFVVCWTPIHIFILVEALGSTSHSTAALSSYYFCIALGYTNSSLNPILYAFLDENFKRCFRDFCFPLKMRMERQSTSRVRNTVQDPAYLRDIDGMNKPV
Description: Determination of apparent affinity (Ke). The ability of a single concentration of test compound to shift the U69,593 (full kappa opioid receptor agonist) dose response curve to the right was used to determine the apparent affinity (Ke) of the test compounds. Assay conditions and analysis of the data were identical to that detailed for the determination of intrinsic activity except that membrane homogenates from CHO cells expressing the human kappa opioid receptor were used, and a single, identical concentration of test compound was included with each assayed concentration of kappa agonist. […]

[2] = molecular target: T3, human delta opioid receptor (Homo sapiens, UniProt P41143); assay: [35S]GTP-γ-S binding stimulation, intrinsic activity at delta receptor; details: for intrinsic activity at the delta opioid receptor (in words): compared with DPDPE; for Emax: read-out: Agonist δ Emax (% DPDPE)
T3 construct: expressed in transfected cells; host or cells: CHO cells (membrane homogenates)
T3 sequence (P41143 whole entry): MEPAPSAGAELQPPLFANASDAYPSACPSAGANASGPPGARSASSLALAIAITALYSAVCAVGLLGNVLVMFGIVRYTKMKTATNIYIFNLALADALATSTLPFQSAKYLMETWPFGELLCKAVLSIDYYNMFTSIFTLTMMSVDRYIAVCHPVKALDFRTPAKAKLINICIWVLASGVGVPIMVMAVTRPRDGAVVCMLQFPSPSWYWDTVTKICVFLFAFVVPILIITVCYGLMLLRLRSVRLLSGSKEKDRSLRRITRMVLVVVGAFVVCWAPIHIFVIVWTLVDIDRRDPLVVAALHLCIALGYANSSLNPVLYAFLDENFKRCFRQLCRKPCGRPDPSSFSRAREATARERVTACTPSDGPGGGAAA
Protocol: as §1

SMILES	intrinsic activity at the mu opioid receptor (in words) (human mu opioid receptor)	maximum stimulation of [35S]GTP-γ-S binding compared with DAMGO (t-test) (human mu opioid receptor; p>0.05)	activity at the kappa opioid receptor (in words) [1]	intrinsic activity at the delta opioid receptor (in words) [2]	Emax [2] [%]	Emax (human mu opioid receptor; relative to Emax of DAMGO, mean ±SEM, read-out: Agonist μ Emax (% DAMGO)) [%]
CNC1CC2CC(c3cccc(O)c3)(C1)C(C)CN2CCCc1ccccc1 (centres unmarked) [Compound 2.11, 5-(3-Hydroxyphenyl)-4-methyl-7-methylamino-2-(3-phenylprop-1-yl)-2-azabicyclo[3.3.1]nononane]	full agonist	not statistically different	good inhibitor	partial agonist	79.7 ± 7.7	–
C[C@@H]1CN(CCCc2ccccc2)[C@H]2C[C@H](N)C[C@]1(c1cccc(O)c1)C2 [Compound 2.8, (−)-3-[(1 R,4S,5S,7R)-7-Amino-4-methyl-2-(3-phenylpropyl)-2-aza-bicyclo[3.3.1]non-5-yl]phenol]	partial agonist	–	good inhibitor	potent full agonist	101 ± 14	74 ± 12
C[C@@H](NC(=O)[C@@H](N)Cc1ccc(O)cc1)C(=O)NCC(=O)N(C)[C@@H](Cc1ccccc1)C(=O)NCCO [DAMGO, (D-Ala^2,MePhe^4,Gly-ol^5)enkephalin, reference compound]	full agonist	–	–	–	–	–
